Assay results published in US4870097A, “Pharmaceutical use of derivatives of tryptophan” (priority 1984, dated 1989).

What was measured:
endogenous opiates = assay: Tail Flick Test after transcutaneous shock: analgesic activity of endogenous opiates; format: in vivo, rats; conditions: for Average latency, 5': 5' after electric shock; for Average latency, 10': 10' after electric shock; for Average latency, 15': 15' after electric shock
Method: Influence of several of the compounds of the invention on the analgesic activity of endogenous opiates released under transcutaneous shock in rats measured by the Tail Flick Test
The method is that described by Lewis et al. (J. Neurosc. 1, 358 (1981). Male rats having a weight of about 200 g, which have not been fasting, are used.
The animals are stressed by the application to the front leg of a 60 Hz-2.5 mA current in pulses of a duration of one second every five seconds for 20 minutes.
This stress regime causes the release of endogenous opiates.

[1] = test system: analgesic activity of DALA; assay: Tail Flick test: increase in the analgesic activity of DALA (i.c.v.); format: in vivo, rats; design: analgesic activity (Tail Flick), 10' / analgesic activity (Tail Flick), 20' / analgesic activity (Tail Flick), 30' / analgesic activity (Tail Flick), 45' / analgesic activity (Tail Flick), 60' / analgesic activity (Tail Flick), AVERAGE: scale not given here; conditions: for analgesic activity (Tail Flick), AVERAGE: average 10'-60'
Method: In order to check one of the possible mechanisms for the action of the compounds of the invention, that is, their possible inhibition of the enzymatic degradation of endogenous enkephalins, the following experiment was carried out:
A cannula was implanted in the right lateral ventricle of male rats having a weight of 150-200 g (groups of five animals were used) in order to allow the intracerebroventricular (i.c.v.) administration of drugs according to the method of Noble et al (Life Science 6, (1970) 281-291).
The animals were subsequently treated (i.c.v.) with 3 μg of D-ala-methionine-enkephalinamide (DALA) immediately after an injection (i.c.v.) of the compounds under study at the doses given in Table 4. Analgesia was tested for by the Tail Flick method already mentioned, at the times

SMILES	Average latency, 5' (endogenous opiates; 0.5 mg/kg i.v. + stress) [s]	Average latency, 5' (endogenous opiates; 2 mg/kg i.v. + stress) [s]	Average latency, 10' (endogenous opiates; 0.5 mg/kg i.v. + stress) [sec.]	Average latency, 10' (endogenous opiates; 2 mg/kg i.v. + stress) [sec.]	Average latency, 15' (endogenous opiates; 0.5 mg/kg i.v. + stress) [s]	Average latency, 15' (endogenous opiates; 2 mg/kg i.v. + stress) [s]	analgesic activity (Tail Flick), 10' ([1]; 10(D) + 0.001 mg/kg (ICV))	analgesic activity (Tail Flick), 20' ([1]; 10(D) + 0.001 mg/kg (ICV))	analgesic activity (Tail Flick), 30' ([1]; 10(D) + 0.001 mg/kg (ICV))	analgesic activity (Tail Flick), 45' ([1]; 10(D) + 0.001 mg/kg (ICV))	analgesic activity (Tail Flick), 60' ([1]; 10(D) + 0.001 mg/kg (ICV))	analgesic activity (Tail Flick), AVERAGE ([1]; 10(D) + 0.001 mg/kg (ICV))	analgesic activity (Tail Flick), 10' ([1]; 10(D) + 0.01 mg/kg (ICV))	analgesic activity (Tail Flick), 20' ([1]; 10(D) + 0.01 mg/kg (ICV))	analgesic activity (Tail Flick), 30' ([1]; 10(D) + 0.01 mg/kg (ICV))	analgesic activity (Tail Flick), 45' ([1]; 10(D) + 0.01 mg/kg (ICV))	analgesic activity (Tail Flick), 60' ([1]; 10(D) + 0.01 mg/kg (ICV))	analgesic activity (Tail Flick), AVERAGE ([1]; 10(D) + 0.01 mg/kg (ICV))
CCCCCCc1ccc(C(=O)N[C@@H](Cc2c[nH]c3ccccc23)C(=O)O)cc1 [Compound 26]	6.62 ± 0.72	11.0 ± 0.65	6.1 ± 0.61	9.28 ± 0.78	5.52 ± 0.9	6.84 ± 0.73	62.44	73.94	67.94	40.38	34.06	55.75 ± 7.84	80.54	82.66	70.42	45.9	68.9	69.68 ± 6.53
O=C(N[C@@H](Cc1c[nH]c2ccccc12)C(=O)O)OC(c1ccccc1)c1ccccc1 [Compound 33]	6.68 ± 0.53	9.92 ± 0.92	6.58 ± 0.46	8.1 ± 1.0	5.3 ± 0.56	6.51 ± 0.48	64.12	77.56	72.7	45.76	57.38	63.50 ± 5.63	81.48	100.00	80.22	59.24	55.88	75.36 ± 8.08
